Patent US7317028B2, “Cell differentiation inducer” (Schering Aktiengesellschaft, priority 1996, dated 2008)
Where a name gives a salt, the structure may show the parent alone.

Tested on: A2780 cells
Experiment: Test for induction of differentiation in A2780 cells (ALP activity, ALPmin)
Assay type: cell-based, human
Conditions: A2780 cells, 3 days incubation; minimum concentration of the drug inducing increase of ALP activity
Experimental: Increase of alkaline phosphatase (ALP) activity is known as an indicator for differentiation of human colon cancer cells. […] Thus, differentiation inducing action was evaluated using ALP activity as an indicator.
To each well of a 96-well plate was placed 0.1 mL of A2780 cells (15,000 cells/well) and the next day was added 0.1 mL of a sequential dilute of test solution with the medium. […] The reaction was quenched with 0.05 mL/well of 3N sodium hydroxide aq. For each well, an absorbance at 405 nm was measured to determine the minimum concentration of the drug inducing increase of ALP activity (ALPmin).

Structure (SMILES)	minimal effective concentration
Nc1ccccc1NC(=O)c1ccc(CNC(=O)OC2CN3CCC2CC3)cc1 (centres unmarked) [Example 72, N-(2-aminophenyl)-4-[N-(quinuclidin-3-yl)oxycarbonylaminomethyl]benzamide]	10 µM
Nc1ccccc1NC(=O)c1ccc(CNC(=O)NCc2cccnc2)cc1 [Example 89, N-(2-aminophenyl)-4-[N′-(pyridin-3-ylmethyl)ureidomethyl]benzamide]	0.3 µM
Nc1cccc(NC(=O)NCc2ccc(C(=O)Nc3ccccc3N)cc2)c1 [Example 90, N-(2-aminophenyl)-4-[N′-(3-aminophenyl)ureidomethyl]benzamide]	3 µM
Nc1ccccc1NC(=O)c1ccc(CNC(=O)Nc2cccnc2)cc1 [Example 91, N-(2-aminophenyl)-4-[N′-(pyridin-3-yl)ureidomethyl]benzamide]	0.1 µM
Nc1cccc(NC(=S)NCc2ccc(C(=O)Nc3ccccc3N)cc2)c1 [Example 92, N-(2-aminophenyl)-4-[N′-(3-aminophenyl)thioureidomethyl]benzamide]	3 µM
Nc1ccccc1NC(=O)c1ccc(CNC(=S)Nc2cccc([N+](=O)[O-])c2)cc1 [Example 93, N-(2-aminophenyl)-4-[N′-(3-nitrophenyl)thioureidomethyl]benzamide]	3 µM
Nc1ccc(F)cc1NC(=O)c1ccc(CNC(=O)NCc2cccnc2)cc1 [Example 94, N-(2-amino-5-fluorophenyl)-4-[N′-(pyridin-3-yl)methylureidomethyl]benzamide]	3 µM
O=C(NCc1ccc(C(=O)Nc2ccccc2O)cc1)NCc1cccnc1 [Example 95, N-(2-hydroxyphenyl)-4-[N′-(pyridin-3-yl)methylureidomethyl]benzamide]	3 µM
Nc1ccccc1NC(=O)c1cc2cc(NC(=O)CCc3cccnc3)ccc2o1 [Example 128, N-(2-aminophenyl)-5-[3-(pyridin-3-yl)propionamide]benzofuran-2-carboxyamide]	0.1 µM
Nc1ccccc1NC(=O)c1ccc(N2CC(COc3ccc([N+](=O)[O-])cc3)OC2=O)cc1 (centres unmarked) [Example 137, N-(2-aminophenyl)-4-[5-(4-nitrophenoxy)methyl-1,3-oxazolin-2-on-3-yl-yl]benzamide]	1 µM
Nc1ccccc1NC(=O)c1ccc(CN2CCN(Cc3cccnc3)C2=O)cc1 [Example 145, N-(2-aminophenyl)-4-[3-(pyridin-3-yl)methylimidazolin-2-on-1-yl]methylbenzamide]	3 µM

Same assay, conditions: Homo sapiens, 72 h; A2780 cells, 3 days incubation; minimum concentration of the drug inducing increase of ALP activity

Structure (SMILES)	minimal effective concentration
Nc1ccccc1NC(=O)c1ccc(CNC(=O)OCC2CCOC2)cc1 (centres unmarked) [Example 67, N-(2-aminophenyl)-4-[N-(tetrahydrofuran-3-yl)methoxycarbonylaminomethyl]benzamide]	3 µM
Nc1ccc(F)cc1NC(=O)c1ccc(CNC(=O)OCc2cccnc2)cc1 [Example 70, N-(2-amino-5-fluorophenyl)-4-[N-(pyridin-3-yl)methoxycarbonylaminomethyl]benzamide]	0.1 µM
Nc1ccccc1NC(=O)c1ccc(CN(Cc2cccnc2)C(=O)OCc2cccnc2)cc1 [Example 79, N-(2-aminophenyl)-4-[N-(pyridin-3-yl)methyl-N-(pyridin-3-yl)methoxycarbonylaminomethyl]benzamide]	0.1 µM
Nc1ccccc1NC(=O)c1ccc(CN(CCCc2cccnc2)C(=O)OCc2cccnc2)cc1 [Example 80, N-(2-aminophenyl)-4-[N-[3-(Pyridin-3-yl)propyl]-N-(pyridin-3-yl)methoxycarbonylaminomethyl]benzamide]	0.1 µM
O=C(Nc1ccccc1O)c1ccc(CN(Cc2cccnc2)C(=O)OCc2cccnc2)cc1 [Example 81, N-(2-hydroxyphenyl)-4-[N-(pyridin-3-yl)methyl-N-(pyridin-3-yl)methoxycarbonylaminomethyl]benzamide]	10 µM
Nc1ccccc1NC(=O)c1ccc(NC(=O)OCCc2cccnc2)cc1 [Example 86, N-(2-aminophenyl)-4-[N-[2-(pyridin-3-yl)ethoxycarbonyl]amino]benzamide]	0.3 µM
CC(=O)N(CCc1ccc(C(=O)Nc2ccccc2N)cc1)c1cccnc1 [Example 96, N-(2-aminophenyl)-4-[2-[N-(pyridin-3-yl)-acetylamino]ethyl]benzamide]	10 µM
Nc1ccccc1NC(=O)c1ccc(COC(=O)NCCCn2ccnc2)cc1 [Example 99, N-(2-aminophenyl)-4-[3-(imidazol-1-yl)propylaminocarbonyloxymethyl]benzamide]	3 µM
Nc1ccccc1NC(=O)c1ccc(NC(=O)CCCc2ccccc2)cc1 [Example 101, N-(2-aminophenyl)-4-[(4-phenylbutanoyl)amino]benzamide]	3 µM
Nc1ccccc1NC(=O)c1ccc(NC(=O)Cc2ccc(Cl)cc2)cc1 [Example 102, N-(2-aminophenyl)-4-[(4-chlorophenylacetyl)amino]benzamide]	3 µM
Nc1ccccc1NC(=O)c1ccc(NC(=O)Cc2ccccc2[N+](=O)[O-])cc1 [Example 103, N-(2-aminophenyl)-4-[(2-nitrophenylacetyl)amino]benzamide hydrochloride]	1 µM
COc1ccc(CC(=O)Nc2ccc(C(=O)Nc3ccccc3N)cc2)cc1 [Example 107, N-(2-aminophenyl)-4-[(4-methoxyphenylacetyl)amino]benzamide]	1 µM
Nc1ccccc1NC(=O)c1ccc(NC(=O)Cc2ccc(C(F)(F)F)cc2)cc1 [Example 109, N-(2-aminophenyl)-4-[(4-trifluoromethylphenylacetyl)amino]benzamide]	1 µM
Nc1ccccc1NC(=O)c1ccc(NC(=O)Cc2ccccn2)cc1 [Example 110, N-(2-aminophenyl)-4-[(pyridin-2-yl)acetylamino]benzamide dihydrochloride]	3 µM
Nc1ccccc1NC(=O)c1ccc(NC(=O)CCc2cccnc2)cc1Cl [Example 113, N-(2-aminophenyl)-2-chloro-4-[3-(pyridin-3-yl)propanoylamino]benzamide]	0.3 µM
Nc1ccc(OCC(=O)Nc2ccc(C(=O)Nc3ccccc3N)cc2)cc1 [Example 135, N-(2-aminophenyl)-4-[(4-aminophenoxyacetyl)amino]benzamide]	3 µM
Nc1ccccc1NC(=O)c1ccc(-n2cc(COc3ccccc3)oc2=O)cc1 [Example 136, N-(2-aminophenyl)-4-(5-phenoxymethyl-1,3-oxazolin-2-on-3-yl)benzamide]	1 µM
Nc1ccccc1NC(=O)c1ccc(-n2cc(COc3cccnc3)oc2=O)cc1 [Example 139, N-(2-aminophenyl)-4-[5-(pyridin-3-yl)oxymethyl-1,3 oxazolin-2-on-3-yl]benzamide]	0.3 µM
Nc1ccccc1NC(=O)c1ccc(-n2cc(COc3ccccn3)oc2=O)cc1 [Example 143, N-(2-aminophenyl)-4-[5-(pyridin-2-yl)oxymethyl-1,3-oxazolin-2-on-3-yl]benzamide]	3 µM

Tested on: not given
Experiment: not given
Conditions: not given

melting point	Structure (SMILES)
209 °C (dec.)	Nc1ccccc1NC(=O)c1ccc(CNC(=O)Oc2cccnc2)cc1
173 to 178 °C (dec.)	Nc1ccccc1NC(=O)c1ccc(CNC(=O)c2ccccn2)cc1 [Example 12, N-(2-aminophenyl)-4-(N-picolinoylaminomethyl)benzamide]
193 to 196 °C	Nc1ccccc1NC(=O)c1ccc(CNC(=O)c2cccnc2)cc1 [Example 14, N-(2-aminophenyl)-4-(N-nicotinoylaminomethyl)benzamide]
234 to 237 °C (dec.)	Nc1ccccc1NC(=O)c1ccc(CNC(=O)c2ccncc2)cc1 [Example 19, N-(2-aminophenyl)-4-(N-isonicotinoylaminomethyl)benzamide]
207 °C (dec.)	Nc1ccccc1NC(=O)c1ccc(CNC(=O)c2cnccn2)cc1 [Example 20, N-(2-aminophenyl)-4-[N-(pyrazin-2-yl)carbonylaminomethyl]benzamide]
202 to 205 °C (dec.)	Nc1ccccc1NC(=O)c1ccc(CNC(=O)c2cccs2)cc1 [Example 21, N-(2-aminophenyl)-4-[N-(thiophen-2-yl)carbonylaminomethyl]benzamide]
197 °C (dec.)	Nc1ccccc1NC(=O)c1ccc(CNC(=O)c2ccco2)cc1 [Example 22, N-(2-aminophenyl)-4-[N-(furan-2-yl)carbonylaminomethyl]benzamide]
171 to 173 °C (dec.)	CC(Oc1cccnc1)C(=O)NCc1ccc(C(=O)Nc2ccccc2N)cc1 (centres unmarked) [Example 47, N-(2-aminophenyl)-4-[N-[2-(pyridin-3-yl)oxy]propionylaminomethyl]benzamide]
192 to 195 °C	Nc1ccccc1NC(=O)c1ccc(CNC(=O)OCC2=CN(c3ccccc3)CO2)cc1 [Example 62, N-(2-aminophenyl)-4-[N-(3-phenyloxazol-5-yl)methoxycarbonylaminomethyl]benzamide]
155 to 155.5 °C	Cc1ccc(O)c(NC(=O)c2ccc(CNC(=O)OCc3cccnc3)cc2)c1 [Example 84, N-(2-hydroxy-5-methylphenyl)-4-[N-(pyridin-3-yl)methoxycarbonylaminomethyl]benzamide]
173 to 174 °C	Nc1ccccc1NC(=O)Cc1cc2cc(NC(=O)OCc3cccnc3)ccc2o1 [Example 87, N-(2-aminophenyl)-5-[(pyridin-3-yl)methoxycarbonyl]aminobenzofuran-2-carboxyamide]
